In patent US4988687A, “Cephalosporin derivatives, and antibacterial agents” (priority 1986, dated 1991):
In brackets after ≈: the same amount, converted by molar mass. Like-named read-outs stand apart in the source and are kept apart here.

Key:
[1] = test system: S. aureus 209P NIHJ-JC1; assay: agar plate dilution method, MIC against S. aureus 209P NIHJ-JC1; assay type: cell-based; settings: Staphylococcus aureus, read-out: Minimum Inhibitory Concentration (MIC)
Procedure: (§1) The in vitro antibacterial activities of the compounds of the present invention against various microorganisms, were measured by the following agar plate dilution method. One platinum loopfull of each test microorganism incubated overnight in Mueller Hinton broth, was inoculated to Mueller Hinton agar (inoculum size: 10^6 CFU/ml) Such culture media containing various antibiotics in various concentrations were prepared After incubation at 37° C. for 16 hours, the minimum inhibitory concentrations (MIC: μg/ml) were measured. As comparative compounds, cefotaxime, oeftazidime and the compounds disclosed in Example 2 of Japanese Unexamined Patent Publication No. 215690/1985 e.g. sodium 7-[2-(2-aminothiazol-4-yl)-2-ethoxyiminoacetamido]-3-(1-carboxylatemethylpyridinio-4-yl)thiomethyl-3-cephem-4-carboxylate (hereinafter referred to simply as "Reference Example A") were employed.

[2] = test system: S. aureus JS1; assay: agar plate dilution method, MIC against S. aureus JS1; assay type: cell-based; settings: Staphylococcus aureus, read-out: Minimum Inhibitory Concentration (MIC)
Procedure: as §1

[3] = test system: S. aureus BB5703; assay: agar plate dilution method, MIC against S. aureus BB5703; assay type: cell-based; settings: Staphylococcus aureus, read-out: Minimum Inhibitory Concentration (MIC)
Procedure: as §1

[4] = test system: S. epidermidis IAM12012; assay: agar plate dilution method, MIC against S. epidermidis IAM12012; assay type: cell-based; settings: Staphylococcus epidermidis, IAM12012, 16 h, read-out: Minimum Inhibitory Concentration (MIC)
Procedure: as §1

[5] = test system: M. luteus ATCC9341; assay: agar plate dilution method, MIC against M. luteus ATCC9341; assay type: cell-based; settings: Micrococcus luteus, read-out: Minimum Inhibitory Concentration (MIC)
Procedure: as §1

[6] = test system: C. freundii GN346/16; assay: agar plate dilution method, MIC against C. freundii GN346/16; assay type: cell-based; settings: Citrobacter freundii, read-out: Minimum Inhibitory Concentration (MIC)
Procedure: as §1

[7] = test system: E. coli NIHJ JC2; assay: agar plate dilution method, MIC against E. coli NIHJ JC2; assay type: cell-based; settings: Escherichia coli, NIHJJC2; E. coli NIHJ JC2; 10^6 CFU/ml, 37° C., 16 hours; read-out: Minimum Inhibitory Concentration (MIC)
Procedure: as §1

[8] = test system: E. coli CSH2 (RK1); assay: agar plate dilution method, MIC against E. coli CSH2 (RK1); assay type: cell-based; settings: Escherichia coli, 16 h, read-out: Minimum Inhibitory Concentration (MIC)
Procedure: as §1

[9] = test system: K. pneumoniae PCI-602; assay: agar plate dilution method, MIC against K. pneumoniae PCI-602; assay type: cell-based; settings: Klebsiella pneumoniae, PCI602, 16 h, read-out: Minimum Inhibitory Concentration (MIC)
Procedure: as §1

[10] = test system: E. coli CSH(RE45); assay: agar plate dilution method, MIC against E. coli CSH(RE45); assay type: cell-based; settings: Escherichia coli, 16 h, read-out: Minimum Inhibitory Concentration (MIC)
Procedure: as §1

[11] = test system: K. oxytoca GN10650; assay: agar plate dilution method, MIC against K. oxytoca GN10650; assay type: cell-based; settings: Klebsiella oxytoca; K. oxytoca GN10650 (lactamase-producing strain); 10^6 CFU/ml, 37° C., 16 hours; read-out: Minimum Inhibitory Concentration (MIC)
Procedure: as §1

[12] = test system: K. pneumoniae No. 42; assay: agar plate dilution method, MIC against K. pneumoniae No. 42; assay type: cell-based; settings: Klebsiella pneumoniae; K. pneumoniae No. 42 (lactamase-producing strain); 10^6 CFU/ml, 37° C., 16 hours; read-out: Minimum Inhibitory Concentration (MIC)
Procedure: as §1

[13] = test system: P. vulgaris HX-19; assay: agar plate dilution method, MIC against P. vulgaris HX-19; assay type: cell-based; settings: Proteus vulgaris, HX19, 16 h, read-out: Minimum Inhibitory Concentration (MIC)
Procedure: as §1

[14] = test system: P. vulgaris No. 33; assay: agar plate dilution method, MIC against P. vulgaris No. 33; assay type: cell-based; settings: Proteus vulgaris, read-out: Minimum Inhibitory Concentration (MIC)
Procedure: as §1

[15] = test system: S. marcescens IAM 1184; assay: agar plate dilution method, MIC against S. marcescens IAM 1184; assay type: cell-based; settings: Serratia marcescens, read-out: Minimum Inhibitory Concentration (MIC)
Procedure: as §1

[16] = test system: C. freundii GN346; assay: agar plate dilution method, MIC against C. freundii GN346; assay type: cell-based; settings: Citrobacter freundii; C. freundii GN346 (lactamase-producing strain); 10^6 CFU/ml, 37° C., 16 hours; read-out: Minimum Inhibitory Concentration (MIC)
Procedure: as §1

[17] = test system: E. cloacae 963; assay: agar plate dilution method, MIC against E. cloacae 963; assay type: cell-based; settings: read-out: Minimum Inhibitory Concentration (MIC)
Procedure: as §1

[18] = test system: E. cloacae Nek 39; assay: agar plate dilution method, MIC against E. cloacae Nek 39; assay type: cell-based; settings: Enterobacter cloacae, NEK39; E. cloacae Nek 39 (lactamase-producing strain); 10^6 CFU/ml, 37° C., 16 hours; read-out: Minimum Inhibitory Concentration (MIC)
Procedure: as §1

[19] = test system: E. coli GN5482; assay: agar plate dilution method, MIC against E. coli GN5482; assay type: cell-based; settings: Escherichia coli; E. coli GN5482 (lactamase-producing strain); 10^6 CFU/ml, 37° C., 16 hours; read-out: Minimum Inhibitory Concentration (MIC)
Procedure: as §1

[20] = test system: M. morganii GN5407; assay: agar plate dilution method, MIC against M. morganii GN5407; assay type: cell-based; settings: Morganella morganii; M. morganii GN5407 (lactamase-producing strain); 10^6 CFU/ml, 37° C., 16 hours; read-out: Minimum Inhibitory Concentration (MIC)
Procedure: as §1

[21] = test system: S. marcescens No. 16-2; assay: agar plate dilution method, MIC against S. marcescens No. 16-2; assay type: cell-based; settings: Serratia marcescens, NO.162, 16 h, read-out: Minimum Inhibitory Concentration (MIC)
Procedure: as §1

[22] = test system: Ps. aeruginosa IFO3445; assay: agar plate dilution method, MIC against Ps. aeruginosa IFO3445; assay type: cell-based; settings: Pseudomonas aeruginosa, IFO3445, 16 h, read-out: Minimum Inhibitory Concentration (MIC)
Procedure: as §1

[23] = test system: Ps. aeruginosa AK 109; assay: agar plate dilution method, MIC against Ps. aeruginosa AK 109; assay type: cell-based; settings: Pseudomonas aeruginosa, read-out: Minimum Inhibitory Concentration (MIC)
Procedure: as §1

[24] = test system: Ps. aeruginosa AKR17; assay: agar plate dilution method, MIC against Ps. aeruginosa AKR17; assay type: cell-based; settings: Pseudomonas aeruginosa; Ps. aeruginosa AKR17; 10^6 CFU/ml, 37° C., 16 hours; read-out: Minimum Inhibitory Concentration (MIC)
Procedure: as §1

[25] = test system: Ps. cepacia 23; assay: agar plate dilution method, MIC against Ps. cepacia 23; assay type: cell-based, Pseudomonas cepacia; settings: Burkholderia cepacia, 23, 16 h, read-out: Minimum Inhibitory Concentration (MIC)
Procedure: as §1

[26] = test system: Ps. maltophilia GN 12873; assay: agar plate dilution method, MIC against Ps. maltophilia GN 12873; assay type: cell-based, Pseudomonas maltophilia; settings: Stenotrophomonas maltophilia, GN12873; Ps. maltophilia GN 12873 (lactamase-producing strain); 10^6 CFU/ml, 37° C., 16 hours; read-out: Minimum Inhibitory Concentration (MIC)
Procedure: as §1

[27] = test system: A. calcoaceticus No. 4; assay: agar plate dilution method, MIC against A. calcoaceticus No. 4; assay type: cell-based; settings: Acinetobacter calcoaceticus, read-out: Minimum Inhibitory Concentration (MIC)
Procedure: as §1

In the case of `Nc1nc(/C(=N/Oc2ccccc2)C(=O)NC2C(=O)N3C(C(=O)[O-])=C(CSc4cc[n+](CC(=O)O)cc4)CSC23)cs1` (stereo not drawn) [Example 7, sodium 7-[2-(2-aminothiazol-4-yl)-2-phenoxyiminoacetamido]-3-(1-carboxylatemethylpyridinio-4-yl)thiomethYl-3-cephem-4-carboxylate (syn-isomer)], the MIC ([1]; S. aureus 209P NIHJ-JC1, 10^6 CFU/ml, Mueller Hinton agar, 37° C., 16 hours) is reported as 0.39 µg/mL, the MIC ([2]; JS1, 16 h) is reported as 12.5 µg/mL and the MIC ([3]; BB5703, 16 h) is reported as 3.12 µg/mL. It also gave an MIC [4] of 0.2 µg/mL, an MIC ([5]; M. luteus ATCC9341, 10^6 CFU/ml, 37° C., 16 hours) of 0.1 µg/mL and an MIC ([6]; GN346, 16 h) of 1.56 µg/mL. It also gave an MIC [7] of 0.78 µg/mL, an MIC [8] of 0.78 µg/mL and an MIC [9] of 0.025 µg/mL. It also gave an MIC [10] of 0.78 µg/mL, an MIC [11] of 25 µg/mL and an MIC [12] of 3.12 µg/mL. The MIC [13] was under 0.006 µg/mL, the MIC ([14]; P. vulgaris No. 33 (lactamase-producing strain), 10^6 CFU/ml, 37° C., 16 hours) was 0.78 µg/mL and the MIC ([15]; IAM1184, S. marcescens IAM 1184, 10^6 CFU/ml, 37° C., 16 hours) was 0.78 µg/mL. The MIC [16] was 50 µg/mL, the MIC ([17]; Enterobacter cloacae, 963, 16 h) was 3.12 µg/mL and the MIC [18] was 12.5 µg/mL. It also gave an MIC [19] of 1.56 µg/mL, an MIC [20] of 0.78 µg/mL and an MIC [21] of 12.5 µg/mL. The MIC [22] was 12.5 µg/mL, the MIC ([23]; AK109, Ps. aeruginosa AK 109, 10^6 CFU/ml, 37° C., 16 hours) was 25 µg/mL and the MIC [24] was over 100 µg/mL. It also gave an MIC [25] of 3.12 µg/mL, an MIC [26] of over 100 µg/mL and an MIC ([27]; NO.4, 16 h) of 3.12 µg/mL.

`C=C(O/N=C(\C(=O)NC1C(=O)N2C(C(=O)[O-])=C(CSc3cc[n+](CC(=O)O)cc3)CSC12)c1csc(N)n1)C(=O)O` (stereo not drawn) [Example 1, 7-[2-(2-aminothiazol-4-yl)-2-(1-carboxy-1-vinyloxyimino)acetamido]-3-(1-carboxymethylpyridinio-4-yl)thiomethyl-4-carboxylate (syn-isomer)] was tested, and the MIC ([1]; 16 h) was 3.12 µg/mL (≈ 5.03 µM), the MIC ([2]; S. aureus JS1 (methicilline resistant; lactamase-producing strain), 10^6 CFU/ml, 37° C., 16 hours) was 50 µg/mL (≈ 80.6 µM) and the MIC ([3]; S. aureus BB5703, 10^6 CFU/ml, 37° C., 16 hours) was 25 µg/mL (≈ 40.3 µM). For the same molecule, the MIC [4] was 1.56 µg/mL (≈ 2.51 µM), the MIC ([5]; ATCC9341, 16 h) was 1.56 µg/mL (≈ 2.51 µM) and the MIC ([6]; C. freundii GN346/16, 10^6 CFU/ml, 37° C., 16 hours) was 0.1 µg/mL (≈ 0.161 µM). For the same molecule, the MIC [7] was 0.1 µg/mL (≈ 0.161 µM), the MIC [8] was 0.05 µg/mL (≈ 0.0806 µM) and the MIC [9] was under 0.006 µg/mL. It also gave an MIC [10] of 0.1 µg/mL (≈ 0.161 µM), an MIC [11] of 0.2 µg/mL (≈ 0.322 µM) and an MIC [12] of 0.2 µg/mL (≈ 0.322 µM). For the same molecule, the MIC [13] was under 0.006 µg/mL, the MIC ([14]; NO.33, 16 h) was 0.0125 µg/mL (≈ 0.0201 µM) and the MIC ([15]; IAM1184, 16 h) was under 0.006 µg/mL. It also gave an MIC [16] of 25 µg/mL (≈ 40.3 µM), an MIC ([17]; Enterobacter cloacae, E. cloacae 963, 10^6 CFU/ml, 37° C., 16 hours) of 0.1 µg/mL (≈ 0.161 µM) and an MIC [18] of 0.78 µg/mL (≈ 1.26 µM). It also gave an MIC [19] of 0.2 µg/mL (≈ 0.322 µM), an MIC [20] of 0.0125 µg/mL (≈ 0.0201 µM) and an MIC [21] of 1.56 µg/mL (≈ 2.51 µM). The MIC [22] was 1.56 µg/mL (≈ 2.51 µM), the MIC ([23]; AK109, 16 h) was 3.12 µg/mL (≈ 5.03 µM) and the MIC [24] was over 100 µg/mL. For the same molecule, the MIC [25] was 1.56 µg/mL (≈ 2.51 µM), the MIC [26] was over 100 µg/mL and the MIC ([27]; A. calcoaceticus No. 4, 10^6 CFU/ml, 37° C., 16 hours) was 50 µg/mL (≈ 80.6 µM).
